# Laboratory results: article PMC5866173 (Journal of natural products, 2017)
# “Also recorded” adds a separate entry of the source.
# System: chloroquine/mefloquine-resistant Dd2 strain of Plasmodium falciparum
# Format: cell-based
# Details: Dd2 strain of P. falciparum
row,Compound,antiplasmodial activity (in words)
1,"CC1=CCCC(C)(CC(=O)C[C@]2(C)CCc3cc(O)cc(C)c3O2)OC1 (single isomer, unassigned) [Compound 6, 1-[(S or R)-2,6-dimethyl-2,3,4,7-tetrahydrooxepin-2-yl]-3-[(S)-6-hydroxy-2,8-dimethylchroman-2-yl]propan-2-one]",weak antiplasmodial activity
2,"C/C(=C\CC/C(C)=C/C(=O)C[C@]1(C)CCc2cc(O)cc(C)c2O1)CO [Compound 1, (3E,7E)-9-hydroxy-1-[(S)-6-hydroxy-2,8-dimethylchroman-2-yl]-4,8-dimethylnona-3,7-dien-2-one]",inactive
3,"CC1=CCCC(C)(CC(=O)C[C@]2(C)CCc3cc(O)cc(C)c3O2)OC1 (single isomer, unassigned) [Compound 7, 1-[(R or S)-2,6-dimethyl-2,3,4,7-tetrahydrooxepin-2-yl]-3-[(S)-6-hydroxy-2,8-dimethylchroman-2-yl]propan-2-one]",weak antiplasmodial activity
4,"C/C(=C/CC/C(C)=C/C(=O)C[C@]1(C)CCc2cc(O)cc(C)c2O1)CO [Compound 2, (3E,7Z)-9-hydroxy-1-[(S)-6-hydroxy-2,8-dimethylchroman-2-yl]-4,8-dimethylnona-3,7-dien-2-one]",weak antiplasmodial activity; also recorded: most potent biological activity among these compounds
5,"COc1cc(C)c2c(c1)CC[C@@](C)(CC(=O)/C=C(\C)CC/C=C(\C)CO)O2 [Compound 5, (3E,7E)-9-hydroxy-1-[(S)-6-methoxy-2,8-dimethylchroman-2-yl]-4,8-dimethylnona-3,7-dien-2-one]",weak antiplasmodial activity; also recorded: moderately active

# Same assay, conditions: read-out: IC50 against P. falciparum Dd2; chloroquine-resistant Dd2 strain; 72-hour treatment
row,Compound,IC50 [µM]
1,"(R)-2-[(3E,7E)-9-hydroxy-4,8-dimethylnona-3,7-dien-1-yl]-2,8-dimethyl-2H-chromen-6-ol [Compound 9]",> 117
